Molecular target: T1, Human SST5 somatostatin receptor (Homo sapiens, UniProt P35346)
T1 construct: expressed in transfected cells; host or cells: HEK-293 EBNA cells (membranes)
Assay: Filter plate radio-ligand binding assay for SST5 receptor ([125I]SST-14 displacement)
Conditions: 2P library; for % SST5 radio-ligand binding displaced at conc 50: compound conc 50 μM; for % SST5 radio-ligand binding displaced at conc 250: compound conc 250 μM; for % SST5 radio-ligand binding displaced at conc 500: compound conc 500 μM

T1 sequence (P35346 whole entry): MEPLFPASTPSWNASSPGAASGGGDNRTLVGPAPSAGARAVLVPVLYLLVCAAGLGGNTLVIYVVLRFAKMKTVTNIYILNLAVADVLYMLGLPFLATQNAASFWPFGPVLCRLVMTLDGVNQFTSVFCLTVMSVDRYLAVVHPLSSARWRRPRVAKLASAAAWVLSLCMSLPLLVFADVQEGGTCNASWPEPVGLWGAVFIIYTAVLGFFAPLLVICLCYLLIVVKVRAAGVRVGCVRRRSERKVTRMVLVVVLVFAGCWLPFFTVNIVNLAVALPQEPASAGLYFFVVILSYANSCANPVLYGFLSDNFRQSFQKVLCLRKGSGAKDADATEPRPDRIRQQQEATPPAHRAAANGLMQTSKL

| SMILES | % SST5 radio-ligand binding displaced at conc 50 | % SST5 radio-ligand binding displaced at conc 250 | % SST5 radio-ligand binding displaced at conc 500 |
| --- | --- | --- | --- |
| COC[C@H]1O[C@@H](SC)[C@H](NC(=O)CCN)[C@H](OCc2ccc(Cl)cc2)[C@@H]1O [Compound 37] | − (% SST5 radio-ligand binding displaced at cone (μM) −<40%) | − (% SST5 radio-ligand binding displaced at cone (μM) −<40%) | − (% SST5 radio-ligand binding displaced at cone (μM) −<40%) |
| COC[C@H]1O[C@H](OCc2ccc(Cl)cc2)[C@H](NC(=O)CCN)[C@H](OC)[C@@H]1O [Compound 38] | − (% SST5 radio-ligand binding displaced at cone (μM) −<40%) | + (% SST5 radio-ligand binding displaced at cone (μM) 60>+>40%) | ++ (% SST5 radio-ligand binding displaced at conc (μM) >60%) |
| COC[C@H]1O[C@@H](OCc2ccc(Cl)cc2)[C@H](NC(=O)CCN)[C@H](OC)[C@@H]1O [Compound 39] | − (% SST5 radio-ligand binding displaced at cone (μM) −<40%) | − (% SST5 radio-ligand binding displaced at cone (μM) −<40%) | ++ (% SST5 radio-ligand binding displaced at conc (μM) >60%) |
| COC[C@H]1O[C@@H](OCc2ccc3ccccc3c2)[C@H](NC(=O)CCN)[C@H](OC)[C@@H]1O [Compound 40] | − (% SST5 radio-ligand binding displaced at cone (μM) −<40%) | ++ (% SST5 radio-ligand binding displaced at conc (μM) >60%) | ++ (% SST5 radio-ligand binding displaced at conc (μM) >60%) |
| CO[C@@H]1[C@H](O)[C@@H](COCc2ccc(Cl)cc2)O[C@@H](SC)[C@@H]1NC(=O)CCCN [Compound 41] | − (% SST5 radio-ligand binding displaced at cone (μM) −<40%) | − (% SST5 radio-ligand binding displaced at cone (μM) −<40%) | − (% SST5 radio-ligand binding displaced at cone (μM) −<40%) |
| CO[C@@H]1[C@H](O)[C@@H](COCc2ccc3ccccc3c2)O[C@@H](SC)[C@@H]1NC(=O)CCCN [Compound 42] | − (% SST5 radio-ligand binding displaced at cone (μM) −<40%) | − (% SST5 radio-ligand binding displaced at cone (μM) −<40%) | + (% SST5 radio-ligand binding displaced at cone (μM) 60>+>40%) |
| COC[C@H]1O[C@@H](SC)[C@H](NC(=O)CCCN)[C@H](OCc2ccc(Cl)cc2)[C@@H]1O [Compound 43] | − (% SST5 radio-ligand binding displaced at cone (μM) −<40%) | − (% SST5 radio-ligand binding displaced at cone (μM) −<40%) | − (% SST5 radio-ligand binding displaced at cone (μM) −<40%) |
| COC[C@H]1O[C@@H](OCc2ccc(Cl)cc2)[C@H](NC(=O)CCCN)[C@H](OC)[C@@H]1O [Compound 44] | − (% SST5 radio-ligand binding displaced at cone (μM) −<40%) | − (% SST5 radio-ligand binding displaced at cone (μM) −<40%) | ++ (% SST5 radio-ligand binding displaced at conc (μM) >60%) |
| COC[C@H]1O[C@@H](OCc2ccc3ccccc3c2)[C@H](NC(=O)CCCN)[C@H](OC)[C@@H]1O [Compound 45] | − (% SST5 radio-ligand binding displaced at cone (μM) −<40%) | + (% SST5 radio-ligand binding displaced at cone (μM) 60>+>40%) | ++ (% SST5 radio-ligand binding displaced at conc (μM) >60%) |
| COC[C@H]1O[C@@H](SC)[C@H](NC(=O)CCN)[C@H](OCc2ccc3ccccc3c2)[C@@H]1O [Compound 57] | − (% SST5 radio-ligand binding displaced at cone (μM) −<40%) | − (% SST5 radio-ligand binding displaced at cone (μM) −<40%) | − (% SST5 radio-ligand binding displaced at cone (μM) −<40%) |
